Results as given in patent publication US8669260B2, “Ketoconazole-derivative antagonist of human pregnane X receptor and uses thereof” (priority 2008, dated 2014).
Read-outs that look alike come from different tables or passages of the source. Blank lines part the entries; values can stand above or below the molecule they belong to.

Columns and labels:
HepG2 cells = conditions: for HepG2 cell proliferation (in words): 48 hours
PXR [1] = biological target: T1, PXR (Homo sapiens, UniProt O75469); experiment: PXR transactivation assay (activation mode), HepG2 cells transfected with human PXR-pcDNA3 and CYP3A-Luc; assay type: cell-based; set-up: expressed in transfected cells; host or cells: HepG2
T1 sequence (O75469 1-434): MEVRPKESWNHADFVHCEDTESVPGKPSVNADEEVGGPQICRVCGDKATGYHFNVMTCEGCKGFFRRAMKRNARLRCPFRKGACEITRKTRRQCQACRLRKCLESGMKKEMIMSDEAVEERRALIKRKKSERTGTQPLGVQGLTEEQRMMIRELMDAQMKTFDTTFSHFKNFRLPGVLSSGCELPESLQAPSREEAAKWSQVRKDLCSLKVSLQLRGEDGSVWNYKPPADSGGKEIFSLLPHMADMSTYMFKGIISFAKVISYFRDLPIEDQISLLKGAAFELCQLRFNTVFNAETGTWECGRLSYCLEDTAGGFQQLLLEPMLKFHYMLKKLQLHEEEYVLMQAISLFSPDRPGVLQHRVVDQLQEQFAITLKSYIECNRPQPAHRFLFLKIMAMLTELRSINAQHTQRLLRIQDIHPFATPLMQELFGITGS

PXR [2] = biological target: T1, PXR; experiment: cell-based; set-up: expressed in transfected cells; host or cells: HepG2
[3] = system: Caco-2, LS174T, SKOV3 and CRL cell lines; experiment: Drug induced cytotoxicity by MTT assay in cancer and fibroblast cell lines
SKOV-3 cells [4] = experiment: Chemotherapeutic sensitivity assay in SKOV-3 cells with and without rifampicin
LXR = conditions: known potency; cited from earlier work
[5] = system: PXR target genes in SKOV-3 cells; experiment: Quantitative RT-PCR of PXR target genes in SKOV-3 cells; assay type: cell-based; conditions: 0-1.0 μM
SKOV-3 cells [6] = conditions: MTT; 48-96 hr exposure (T1317: 48 hours, normalized to GSK1385)
CYP3A4 = CYP3A4 (Homo sapiens, UniProt P08684); experiment: Time-dependent CYP3A4 inhibition assay in human liver microsome (midazolam 1-hydroxylase); conditions: for Maximum % Inhibition, midazolam-1-hydroxylase activity / IC50: human liver microsome; for IC50: read-out: IC50, midazolam-1-hydroxylase activity
Sequence of CYP3A4 (P08684 whole entry): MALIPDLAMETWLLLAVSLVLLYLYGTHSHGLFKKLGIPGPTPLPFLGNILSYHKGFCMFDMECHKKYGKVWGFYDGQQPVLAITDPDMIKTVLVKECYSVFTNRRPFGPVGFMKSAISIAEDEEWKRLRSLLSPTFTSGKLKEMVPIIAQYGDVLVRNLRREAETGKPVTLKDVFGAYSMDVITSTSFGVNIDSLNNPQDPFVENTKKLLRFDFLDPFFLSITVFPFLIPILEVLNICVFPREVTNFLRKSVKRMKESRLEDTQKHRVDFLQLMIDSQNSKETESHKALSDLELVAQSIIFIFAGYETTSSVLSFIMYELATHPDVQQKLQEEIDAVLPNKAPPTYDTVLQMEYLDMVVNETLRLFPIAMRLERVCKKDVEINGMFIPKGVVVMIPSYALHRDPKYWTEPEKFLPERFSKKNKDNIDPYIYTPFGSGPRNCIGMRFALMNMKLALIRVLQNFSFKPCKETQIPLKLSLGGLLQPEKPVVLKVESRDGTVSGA
Experimental: Briefly, test articles were incubated in a reaction mixture containing 5 μM midazolam, 0.1 mg/ml human liver microsomes and 1 mM NADPH for 5 min. The enzyme reaction was stopped by adding an equal volume of quench solution (H2O:acetonitrileformic-acid=94:5:1) containing ^13C-1-hydroxymdiazolam (0.1 μM final) as the internal standard. In order to test time-dependency of CYP3A4 inhibition, an identical reaction was started without midazolam and the reaction mixture was incubated for 30 min. After the pre-incubation, 5 μM midazolam was added and incubated for 5 min before the quench solution was added. The samples were centrifuged at 1,500 RPM for 15 min to precipitate denatured microsomal proteins. […] A percent CYP3A4 inhibition (% Inh) was calculated by the following equation:
[formula] CDMSO and Ccompound are concentrations of 1-hydroxymidazolam in the vehicle control and a compound tested, respectively. A plot of concentration-% Inh was then created and from the plot, IC50 and Maximum % Inhibition were reported.

SKOV-3 xenografts = experiment: In vivo SKOV-3 xenograft studies in NOD.SCID mice
Experimental: HepG2 cells were processed into slides using histogel (Richard-Allan Scientific, Kalamazoo, Mich.). The slides were placed in a 59° C. oven in the morning of the experiments. For cells and tissue specimens, after de-waxing and re-hydrating the slides, slides were placed in a sodium citrate solution, pH 6.0 (Vector labs, Burlingame, Calif.) for 20 minutes. […] Cell sections were then immunostained with the biotin-streptavidin system from Vector Labs per manufacturer's instructions. Institutional IRB approval (#2007-902) was obtained for use of tissue sections from patients with serous papillary ovarian carcinoma and benign ovaries.
2×10^6 SKOV-3 cells were implanted by subcutaneous route into both flanks of NOD.SCID mice. On day 35 after inoculation, the mean (±SD) (n=32) volume of implanted tumor was 8 mm^3 (±3.5) (range: 4.3-18.3). […] Control intravenous injections consisted of 30% polyethylene glycol. The tumor volume was calculated twice a week using the following formula: Length (mm)×[Width (mm)]^2×π/6 (25).

LS174T cells = experiment: LS174T cell growth (trypan blue counting, doubling time); conditions: within 72 hours
PXR [7] = biological target: T1, PXR; conditions: known potency; cited from earlier work
[8] = non-linear regression, activation by 10 μM rifampicin, read-out: PXR Inhibition IC50

Molecule: CC(=O)N1CCN(c2ccc(OCC3COC(Cn4ccnc4)(c4ccc(Cl)cc4Cl)O3)cc2)CC1 (centres unmarked) [Ketoconazole, ketoconazole]
HepG2 cell proliferation (in words) (HepG2 cells; combination of ketoconazole and rifampicin): cell proliferation is clearly decreased
non-viable cells (HepG2 cells; HepG2, 48 hours, 50 μM): > 35%
EC50 (PXR [1]): > 50 µM
PXR activation (in words) (PXR [1]; PXR transactivation assay): weak activator of PXR
IC50 (PXR [2]): 18.7 µM
inhibition of rifampicin-mediated PXR activation (in words) (PXR [2]): inhibitor of activated PXR
viability ([3]; across all cell lines tested, effective concentration range for PXR inhibition (two times the IC50 ~30 μM), 48 hours): 65-75%

Molecule: CCc1c2c(nc3ccc(O)cc13)-c1cc3c(c(=O)n1C2)COC(=O)[C@]3(O)CC [SN-38]
resistance index induced by rifampicin (SKOV-3 cells [4]; IC50(R)/IC50 (no R)): ~17.5
IC50 (SKOV-3 cells [4]; read-out: IC50(R), SKOV-3 cells, with rifampicin): ~3.5 µM
IC50 (SKOV-3 cells [4]; read-out: IC50 (no R), SKOV-3 cells, without rifampicin): ~0.2 µM

PXR target gene induction (in words) [5]: same profile of gene expression
Molecule: O=S(=O)(c1ccccc1)N(CC(F)(F)F)c1ccc(C(O)(C(F)(F)F)C(F)(F)F)cc1 [T0901317]
SKOV-3 cell survival (in words) (SKOV-3 cells [6]): significant increase in cell survival

Molecule: CC(=O)N1CCN(c2ccc(OC[C@H]3CO[C@@](C)(c4ccc(Cl)cc4Cl)O3)cc2)CC1 [UCL2158H]
Maximum % Activation Observed (PXR [1]; PXR transactivation relative to 10 μM rifampicin, HepG2, 24 h, 50 μM-2.5 nM): 10%
EC50 (PXR [1]; non-linear regression analysis, read-out: PXR Activation EC50): > 50 µM
Maximum % Inhibition Observed (PXR [2]): 109%
inhibition of rifampicin-mediated PXR activation (in words) (PXR [2]; PXR transactivation assay): most potent inhibitors of PXR
IC50 (PXR [2]; [8]): 14.6 µM
PXR Inhibition Imax (PXR [2]; non-linear regression, maximal inhibition of PXR activation with 10 μM rifampicin): 128%
Maximum % Inhibition, midazolam-1-hydroxylase activity (CYP3A4; +preincubation (30 min)): 67%
time-dependency of CYP3A4 inhibition (CYP3A4; IC50 with vs without 30 min preincubation): no time-dependency
IC50 (CYP3A4; +preincubation (30 min)): 19.6 µM
IC50 (CYP3A4; −preincubation): 10.8 µM
Maximum % Inhibition, midazolam-1-hydroxylase activity (CYP3A4; −preincubation): 80%
cytotoxicity (in words) ([3]; epithelial cells, concentration range up to 100 μM, MTT): less cytotoxic than ketoconazole

Molecule: C/C(=C\c1csc(C)n1)[C@@H]1C[C@@H]2O[C@]2(C)CCC[C@H](C)[C@H](O)[C@@H](C)C(=O)C(C)(C)[C@@H](O)CC(=O)N1 [ixabepilone]
% increased survival relative to ixabepilone without rifampicin (SKOV-3 cells [4]; SKOV-3, ixabepilone 0.1-50 μM in the presence of rifampicin, average): ~20%

IC50 (SKOV-3 cells [4]; Homo sapiens, SK-OV-3, read-out: IC50 with rifampicin (R)): ~40 µM
IC50 (SKOV-3 cells [4]; Homo sapiens, SK-OV-3, read-out: IC50 without rifampicin (no R)): ~4 µM
Molecule: CC(=O)O[C@H]1C(=O)[C@@]2(C)[C@H]([C@H](OC(=O)c3ccccc3)[C@]3(O)C[C@H](OC(=O)[C@H](O)[C@@H](NC(=O)c4ccccc4)c4ccccc4)C(C)=C1C3(C)C)[C@]1(OC(C)=O)CO[C@@H]1C[C@@H]2O [paclitaxel]
resistance index induced by rifampicin (SKOV-3 cells [4]; IC50 with rifampicin / IC50 without rifampicin): ~10 fold

Molecule: rifampicin
HepG2 cell proliferation (in words) (HepG2 cells; single agent): concentration dependent proliferation of cells
effect on cytotoxicity of ixabepilone, paclitaxel and SN-38 (in words) (SKOV-3 cells [4]; SKOV-3 cells, rifampicin 20 μM): significantly decreased the cytotoxicity
Ki67 stained cells, mean (SEM) (SKOV-3 xenografts; SKOV-3 xenografts, NOD.SCID mice, 40 mg/kg/day i.v., control 577.0 (21), p<0.00001): 937.0 (37)
tumor size at necropsy and tumor weight (in words) (SKOV-3 xenografts; day 60, versus control): significantly larger tumors
tumor volumes (in words) (SKOV-3 xenografts; days 45-60, versus controls): significantly higher
IC50 (PXR [2]; [8]): > 50 µM
growth rate constant (k=ln 2/g) (LS174T cells; PXR knockdown LS174T cells): ~0.008 hr^−1
growth rate constant (k=ln 2/g) (LS174T cells; vector-transfected LS174T cells): ~0.02 hr^−1
EC50 (PXR [7]): 1 to 2 µM
